Results as given in the supplement of paper PMC10307832.

Assays:
Assay in all cases: relative viability (nuclei count vs DMSO), 5 days (fraction); higher = more cells survive
Nelarabine + Trametinib = compound: COc1nc(N)nc2c1ncn2[C@@H]1O[C@H](CO)[C@@H](O)[C@@H]1O [Nelarabine] + CC(=O)Nc1cccc(-n2c(=O)n(C3CC3)c(=O)c3c(Nc4ccc(I)cc4F)n(C)c(=O)c(C)c32)c1 [Trametinib] (partner 0.02 µM)
Procedure, shortened: (§1)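 Cells from lung cancer lines were seeded into 1536-well plates and, one day later, dosed by pin tool. Treatments were either a single drug or a fixed dose of an anchor drug with five library-drug doses (not always all listed) in √10 steps. After 5 days, nuclei were stained in a one-step fixation (final 0.05% Triton X-100, 1% formaldehyde, 1 ug/ml Hoechst) and counted on 4× images, and relative viability is the treated-to-vehicle nuclei ratio, as the median of duplicate plates.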

Adavosertib + Olaparib = compound: C=CCn1c(=O)c2cnc(Nc3ccc(N4CCN(C)CC4)cc3)nc2n1-c1cccc(C(C)(C)O)n1 [Adavosertib] + O=C(c1cc(Cc2n[nH]c(=O)c3ccccc23)ccc1F)N1CCN(C(=O)C2CC2)CC1 [Olaparib] (partner 8 µM)
Procedure, shortened: as §1

Nelarabine + OSI-027 = compound: COc1nc(N)nc2c1ncn2[C@@H]1O[C@H](CO)[C@@H](O)[C@@H]1O [Nelarabine] + COc1cccc2cc(-c3nc([C@H]4CC[C@H](C(=O)O)CC4)n4ncnc(N)c34)[nH]c12 [OSI-027] (partner 0.5 µM)
Procedure, shortened: as §1

Nelarabine + Crizotinib = compound: COc1nc(N)nc2c1ncn2[C@@H]1O[C@H](CO)[C@@H](O)[C@@H]1O [Nelarabine] + C[C@@H](Oc1cc(-c2cnn(C3CCNCC3)c2)cnc1N)c1c(Cl)ccc(F)c1Cl [Crizotinib] (partner 1 µM)
Procedure, shortened: as §1

Cell Line | relative viability (Nelarabine + Trametinib; first compound 0.01 µM) | relative viability (Nelarabine + Trametinib; first compound 0.03162 µM) | relative viability (Nelarabine + Trametinib; first compound 0.1 µM) | relative viability (Nelarabine + Trametinib; first compound 0.3162 µM) | relative viability (Nelarabine + Trametinib; first compound 1 µM) | relative viability (Adavosertib + Olaparib; first compound 0.01 µM) | relative viability (Adavosertib + Olaparib; first compound 0.03162 µM) | relative viability (Adavosertib + Olaparib; first compound 0.1 µM) | relative viability (Adavosertib + Olaparib; first compound 0.3162 µM) | relative viability (Nelarabine + OSI-027; first compound 0.01 µM) | relative viability (Nelarabine + OSI-027; first compound 0.03162 µM) | relative viability (Nelarabine + OSI-027; first compound 0.1 µM) | relative viability (Nelarabine + OSI-027; first compound 0.3162 µM) | relative viability (Nelarabine + OSI-027; first compound 1 µM) | relative viability (Nelarabine + Crizotinib; first compound 0.01 µM) | relative viability (Nelarabine + Crizotinib; first compound 0.03162 µM) | relative viability (Nelarabine + Crizotinib; first compound 0.1 µM) | relative viability (Nelarabine + Crizotinib; first compound 0.3162 µM) | relative viability (Nelarabine + Crizotinib; first compound 1 µM)
HCC-366 | 0.503 | 0.37 | 0.279 | 0.466 | 0.327 | 0.356 | 0.376 | 0.317 | 0.32 | 1.3 | 0.737 | 0.878 | 1.28 | 0.973 | 0.594 | 0.222 | 0.51 | 1.01 | 0.618
COR-L 105 | 0.351 | 0.398 | 0.448 | 0.383 | 0.482 | 0.657 | 0.689 | 0.76 | 0.65 | 0.781 | 0.82 | 0.531 | 0.616 | 0.715 | 0.998 | 0.752 | 0.678 | 0.894 | 0.844
HCC-44 | 1.14 | 1.05 | 1.01 | 1.03 | 0.983 | 1 | 0.943 | 1.02 | 1.02 | 0.568 | 0.484 | 0.607 | 0.518 | 0.52 | 0.989 | 0.782 | 0.783 | 0.819 | 0.739
LXF-289 | 0.714 | 0.74 | 0.673 | 0.667 | 0.73 | 1.1 | 1.06 | 1.13 | 1.02 | 0.899 | 0.97 | 0.966 | 0.958 | 0.736 | 0.893 | 0.779 | 0.804 | 0.896 | 0.781
NCI-H727 | 0.377 | 0.43 | 0.358 | 0.35 | 0.321 | 0.73 | 0.845 | 0.683 | 0.744 | 0.565 | 0.722 | 0.534 | 0.562 | 0.695 | 1.05 | 1.06 | 0.765 | 0.94 | 0.865
NCI-H2085 | 0.391 | 0.518 | 0.514 | 0.612 | 0.544 | 0.831 | 0.753 | 0.829 | 0.759 | 0.945 | 0.849 | 0.664 | 0.797 | 0.748 | 0.966 | 0.618 | 0.766 | 0.88 | 0.965
A-427 | 0.835 | 0.772 | 0.728 | 0.721 | 0.773 | 0.76 | 0.716 | 0.815 | 0.701 | 0.489 | 0.42 | 0.373 | 0.443 | 0.52 | 1.02 | 0.636 | 0.872 | 0.957 | 0.893
LC-2-ad | 1.09 | 1.01 | 0.922 | 0.993 | 0.899 | 0.7 | 0.725 | 0.803 | 0.786 | 0.922 | 0.879 | 0.754 | 0.81 | 0.875 | 0.497 | 0.404 | 0.444 | 0.421 | 0.447
LU99A | 0.548 | 0.552 | 0.554 | 0.561 | 0.599 | 0.238 | 0.224 | 0.209 | 0.179 | 0.315 | 0.295 | 0.307 | 0.309 | 0.291 | 0.557 | 0.534 | 0.582 | 0.627 | 0.622
201T | 0.781 | 0.775 | 0.737 | 0.712 | 0.73 | 0.887 | 0.882 | 0.868 | 0.818 | 0.85 | 0.638 | 0.762 | 1.15 | 0.85 | 1.04 | 0.968 | 0.84 | 1.06 | 1.02
NCI-H650 | 1.05 | 0.805 | 0.922 | 1.01 | 1.06 | 0.397 | 0.412 | 0.397 | 0.207 | 0.616 | 0.529 | 0.48 | 0.563 | 0.501 | 0.627 | 0.548 | 0.613 | 0.693 | 0.746
NCI-H2023 | 0.721 | 0.61 | 0.46 | 0.632 | 0.505 | 0.496 | 0.432 | 0.338 | 0.168 | 0.545 | 0.397 | 0.341 | 0.416 | 0.354 | 0.831 | 0.672 | 0.59 | 0.578 | 0.605
LK-2 | 0.903 | 0.474 | 0.795 | 0.956 | 0.86 | 0.742 | 0.891 | 0.763 | 0.767 | 0.167 | – | 0.159 | 0.178 | 0.162 | 0.222 | – | 0.223 | 0.205 | 0.206
BEN | 1.17 | 0.91 | 1.01 | 1.05 | 1.31 | 1.07 | 1.01 | 1.12 | 1.05 | 0.328 | 0.293 | 0.541 | 0.296 | 0.301 | 1.37 | 0.869 | 0.896 | 0.88 | 0.929
EPLC-272H | 0.293 | 0.307 | 0.317 | 0.274 | 0.293 | 0.955 | 0.674 | 0.566 | 0.2 | 0.28 | 0.248 | 0.269 | 0.311 | 0.233 | 1.01 | 0.928 | 1 | 0.946 | 0.861
NCI-H1975 | 0.355 | 0.35 | 0.36 | 0.396 | 0.381 | 0.873 | 0.803 | 0.737 | 0.63 | 0.791 | 0.55 | 0.87 | 0.834 | 0.876 | 1.15 | 0.91 | 1.11 | 1.08 | 1.1
HCC-827 | 0.537 | 0.559 | 0.521 | 0.454 | 0.478 | 0.627 | 0.707 | 0.709 | 0.655 | 0.741 | 0.738 | 0.76 | 0.595 | 0.65 | 0.902 | 0.811 | 0.748 | 0.682 | 0.607
